Results from US6596726B1, “Tricyclic compounds capable of inhibiting tyrosine kinases of the epidermal growth factor receptor family” (Warner Lambert Company, priority 1994, dated 2003).
pIC50: −log10 of the molar value. Where a name gives a salt, the structure may show the parent alone. Read-outs that look alike come from different tables or passages of the source. Values belong to the molecule of their own block, whether it stands above or below them.

What was measured:
[1] = target: T1, Human EGF receptor tyrosine kinase (Homo sapiens, UniProt P00533); experiment: EGF receptor tyrosine kinase inhibition (phosphorylation of PLC-gamma 1 derived peptide); type: biochemical
T1 construct: Human EGF receptor tyrosine kinase was isolated from A431 human epidermoid carcinoma cells which overexpress EGF receptor; endogenous in cells; host or cells: A431 human epidermoid carcinoma cells; purified on wheat germ agglutinin sepharose
Method: Purification of Epidermal Growth Factor Receptor Tyrosine Kinase—Human EGF receptor tyrosine kinase was isolated from A431 human epidermoid carcinoma cells which overexpress EGF receptor by the following methods. Cells were grown in roller bottles in 50% Delbuco's Modified Eagle and 50% HAM F-12 nutrient media (Gibco) containing 10% fetal calf serum. Approximately 10^9 cells were lysed in two volumes of buffer containing 20 mM 2-(4N-[2-hydroxyethyl]piperazin-1-yl)ethanesulfonic acid (hepes), pH 7.4, 5 mM ethylene glycol bis(2-aminoethyl ether) N,N,N′,N′-tetraacetic acid, 1% Triton X-100, 10% glycerol, 0.1 mM sodium orthovanadate, 5 mM sodium fluoride, 4 mM pyrophosphate, 4 mM benzamide, 1 mM dithiothreitol, 80 μg/mL aprotinin, 40 μg/mL leupeptin and 1 mM phenylmethylsulfonyl fluoride. After centrifugation at 25,000×g for 10 minutes, the supernatant was equilibrated for 2 h at 4° C. with 10 mL of wheat germ agglutinin sepharose that was previously equilibrated with 50 mM Hepes, 10% glycerol, 0.1% Triton X-100 and 150 mM NaCl, pH 7.5, (equilibration buffer). Contaminating proteins were washed from the resin with 1 M NaCl in equilibration buffer, and the enzyme was eluted with 0.5 M N-acetyl-1-D-glucosamine in equilibration buffer, followed by 1 mM urea. The enzyme was eluted with 0.1 mg/ml EGF.
The reaction was terminated by the addition of 2 mL of 75 mM phosphoric acid and passed through a 2.5 cm phosphocellulose filter disc to bind the peptide. The filter was washed five times with 75 mM phosphoric acid and placed in a vial along with 5 mL of scintillation fluid (Ready gel Beckman).

[2] = target: T2, EGF receptor autophosphorylation in A431 human epidermoid carcinoma cells (Homo sapiens, UniProt P00533); experiment: Inhibition of EGF-induced autophosphorylation in A431 epidermoid carcinoma cells; type: cell-based
T2 construct: endogenous in cells; host or cells: A431 human epidermoid carcinoma cells (ATCC)
Method: Cells were grown to 100% confluency in 100 mm Petrie dishes (Corning). After the cells were treated for 5 minutes with either EGF (epidermal growth factor), PDGF, or bFGF (basic fibroblast growth factor) (20 ng/ml) or 1 ml of conditioned media from MDA-MB-231 cells, the media was removed and the monolayer scraped into 1 ml of ice cold lysis buffer (50 mM Hepes, pH 7.5, 150 mM NaCl, 10% glycerol, 1% triton X-100, 1 mM EDTA, 1 mM EGTA, 10 mM sodium pyrophosphate, 30 mM p-nitrophenyl phosphate, 1 mM orthovanadate, 50 mM sodium fluoride, 1 mM phenylmethylsulfonylfluoride, 10 μg/ml of aprotinin, and 10 μg/ml of leupeptin). The lysate was transferred to a microfuge tube (small centrifuge that holds 1-2 ml plastic centrifuge tubes), allowed to sit on ice 15 minutes and centrifuged 5 minutes at 10,000×g. The supernatant was transferred to a clean microfuge tube and 5 μg of antibody was added to designated samples. The tubes were rotated for 2 hours at 4° C. after which 25 μl of protein A sepharose was added and then rotation continued for at least 2 more hours. The protein A separose was washed 5 times with 50 mM Hepes, pH 7.5, 150 mM NaCl, 10% glycerol and 0.02% sodium azide. […] The extract were transferred to a microfuge tube and heated to 100° C. for 5 minutes. […] Proteins in the gel were electrophoretically transferred to nitrocellulose and the membrane was washed once in 10 mM Tris buffer, pH 7.2, 150 mM NaCl, 0.01% Azide (TNA) and blocked overnight in TNA containing 5% bovine serum albumin and 1% ovalbumin (blocking buffer). The membrane was blotted for 2 hours with the primary antibody (1 μg/ml in blocking buffer) and then washed 2 times sequentially in TNA, TNA containing 0.05% Tween-20 and 0.05% Nonidet P-40 (commercially available detergent) and TNA.
(§1) Inhibition of EGF-Induced Autophosphorylation in A431 Epidermoid Carcinoma Cells and Conditioned Media-Induced Autophosphorylation in SK-BR-3 Breast Tumor Cells by Compounds of the Current Invention
The numbers to the left of gels indicate the positions of molecular weight standards in kiloDaltons.

[3] = tested on: erbB-2, 3, 4 autophosphorylation in SK-BR-3 breast tumor cells; experiment: Inhibition of conditioned media-induced autophosphorylation in SK-BR-3 breast tumor cells; type: cell-based, human; conditions: SK-BR-3 cells, read-out: SKBR-3 IC50
Method: Cells were grown to 100% confluency in 100 mm Petrie dishes (Corning). After the cells were treated for 5 minutes with either EGF (epidermal growth factor), PDGF, or bFGF (basic fibroblast growth factor) (20 ng/ml) or 1 ml of conditioned media from MDA-MB-231 cells, the media was removed and the monolayer scraped into 1 ml of ice cold lysis buffer (50 mM Hepes, pH 7.5, 150 mM NaCl, 10% glycerol, 1% triton X-100, 1 mM EDTA, 1 mM EGTA, 10 mM sodium pyrophosphate, 30 mM p-nitrophenyl phosphate, 1 mM orthovanadate, 50 mM sodium fluoride, 1 mM phenylmethylsulfonylfluoride, 10 μg/ml of aprotinin, and 10 μg/ml of leupeptin). The lysate was transferred to a microfuge tube (small centrifuge that holds 1-2 ml plastic centrifuge tubes), allowed to sit on ice 15 minutes and centrifuged 5 minutes at 10,000×g. The supernatant was transferred to a clean microfuge tube and 5 μg of antibody was added to designated samples. The tubes were rotated for 2 hours at 4° C. after which 25 μl of protein A sepharose was added and then rotation continued for at least 2 more hours. The protein A separose was washed 5 times with 50 mM Hepes, pH 7.5, 150 mM NaCl, 10% glycerol and 0.02% sodium azide. The precipitates were resuspended with 30 μl of Laemlli buffer (Laemmli, NATURE, […], pp. 680-685, 1970), heated to 100° C. for 5 minutes and centrifuged to obtain the supernatant. Whole cell extracts were made by scraping cells grown in the wells of 6 well plates into 0.2 ml of boiling Laemmli buffer. The extract were transferred to a microfuge tube and heated to 100° C. for 5 minutes. The entire supernatant from the immunoprecipitation or 35 μl of the whole cell extract was loaded onto a polyacrylamide gel (4-20%) and electrophoresis carried out by the method of Laemlli (Laemmli, 1970). Proteins in the gel were electrophoretically transferred to nitrocellulose and the membrane was washed once in 10 mM Tris buffer, pH 7.2, 150 mM NaCl, 0.01% Azide (TNA) and blocked overnight in TNA containing 5% bovine serum albumin and 1% ovalbumin (blocking buffer). The membrane was blotted for 2 hours with the primary antibody (1 μg/ml in blocking buffer) and then washed 2 times sequentially in TNA, TNA containing 0.05% Tween-20 and 0.05% Nonidet P-40 (commercially available detergent) and TNA. The membranes were then incubated for 2 hours in blocking buffer containing 0.1 μCi/ml of [^125I] protein A and then washed again as above. After the blots were dry they were loaded into a film cassette and exposed to X-AR X-ray film for 1-7 days. Protein A is a bacterial protein that specifically bonds certain IgG subtypes and is useful in binding to and isolating antibody-antigen complexes.
as §1

[4] = tested on: B104-1-1 NIH-3T3 mouse fibroblasts transfected by the neu oncogene; experiment: Growth inhibition assay (antiproliferative), B104-1-1; type: cell-based; conditions: 72 h, B104-1-1 cells, 3 days
Text: Antiproliferative Properties of Tyrosine Kinase Inhibitors IC50 (nM)
B104-1-1—NIH-3T3 mouse fibroblasts transfected by the neu oncogene: Stern et al., Science, 234, pp. 321-324 (1987);

[5] = EGF Receptor Tyrosine Kinase Inhibition, Table 1, values in nM, read-out: IC50 in EGFR
[6] = enzyme value repeated in the autophosphorylation table, read-out: EGFR IC50

- IC50 [1, 5]: 1.8 nM
- pIC50 [1, 6]: 8.74
- pIC50 [2]: 6.77
Molecule: Brc1cccc(Nc2ncnc3c2sc2ccccc23)c1 [Example 15, 4-(3-Bromoanilino)benzothieno[3,2-d]pyrimidine]

- IC50 [1, 5]: 264 nM
Molecule: c1ccc(Nc2ncnc3[nH]c4ccccc4c23)cc1 [Example 27, 4-Anilinoindolo[2,3-d]pyrimidine]

Molecule: 4-(3-Bromoanilino)imidazolo[4,5-h]quinazoline hydrochloride [Example 11]
- pIC50 ([1]; read-out: IC50 in EGFR): 6.57

- IC50 ([1]; EGF Receptor Tyrosine Kinase Inhibition, Table 1, values printed in μM, read-out: IC50 in EGFR): 1300 nM
Molecule: Clc1cccc(Nc2ncnc3c2sc2ncccc23)c1 [Example 20, 4-(3-Chloroanilino)pyrido[3′, 2′:4,5]thieno[3,2-d]pyrimidine]

Molecule: Brc1cccc(Nc2ncnc3c2[nH]c2ccccc23)c1 [Example 25, 4-(3-Bromoanilino)indolo[3,2-d]pyrimidine hydrochloride]
- pIC50 [3]: 6.00

- pIC50 [1]: 6.13
Molecule: Brc1cccc(Nc2ncnc3c2oc2ccccc23)c1 [Example 34, 4-(3-Bromoanilino)benzofurano[3,2-d]pyrimidine]

- pIC50 [3]: 7.64
Molecule: Nc1ccc2sc3c(Nc4cccc(Br)c4)ncnc3c2c1 [Example 17, 8-Amino-4-(3-bromoanilino)benzo[b]thieno[3,2-d]pyrimidine]
- pIC50 [4]: 5.54

- pIC50 [3]: ~5.82
Molecule: Brc1cccc(Nc2ncnc3c2sc2ncsc23)c1 [Example 19, 4-(3-Bromoanilino)thiazolo[4′,5′; 4,5]thieno[3,2-d]pyrimidine]

Molecule: Brc1cccc(Nc2ncnc3[nH]c4ccccc4c23)c1 [Example 28, 4-(3-Bromoanilino)indolo[2,3-d]pyrimidine hydrochloride]
- IC50 [1, 5]: 31 nM
- pIC50 [1, 6]: 7.51
- pIC50 [2]: 6.20
- pIC50 [3]: 8.00

- IC50 [1, 5]: 732 nM
- pIC50 [2]: 6.96
- pIC50 [3]: 5.96
Molecule: Cn1c2ccccc2c2c(Nc3cccc(Br)c3)ncnc21 [Example 29, 4-(3-Bromoanilino)-9,N-methylindolo[2,3-d]pyrimidine.]

- IC50 [1, 5]: 160 nM
Molecule: Nc1nc(Nc2cccc(Br)c2)c2c(n1)[nH]c1ccccc12 [Example 32, 2-Amino-4-(3-bromoanilino)pyrimido[2,3-d]indole]

- IC50 [1, 5]: 460 nM
Molecule: c1ccc(CNc2ncnc3c2[nH]c2ccccc23)cc1 [Example 23, 4-Benzylaminoindolo[3,2-d]pyrimidine]

- IC50 [1, 5]: 21 nM
Molecule: C[C@@H](Nc1ncnc2cc3ccccc3cc12)c1ccccc1 [Example 2, 4-([R]-1-Phenylethylamino)benzo[g]quinazoline hydrochloride]

- IC50 [1, 5]: 538 nM
Molecule: C[C@@H](Nc1ncnc2c1sc1ccccc12)c1ccccc1 [Example 14, 4-([R]-1-Phenylethylamino)benzothieno[3,2-d]pyrimidine]

- pIC50 [1]: ~11.00
Molecule: Cn1cnc2cc3ncnc(Nc4cccc(Br)c4)c3cc21 [Example 9, 4-(3-Bromoanilino)-6,N-methylimidazolo[4,5-g]quinazoline]

Molecule: 4-(3-Bromoanilino)triazolo[4,5-g]quinazoline hydrochloride [Example 7]
- IC50 [1, 5]: 4.1 nM

- pIC50 [3]: 8.00
Molecule: Cn1cnc2cc3c(Nc4cccc(Br)c4)ncnc3cc21 [Example 8, 4-(3-Bromoanilino)-8,N-methylimidazolo[4,5-g]quinazoline]

- pIC50 [1]: 6.14
Molecule: Brc1cccc(Nc2ncnc3c2sc2ncccc23)c1 [Example 21, 4-(3-bromoanilino)pyrido[3′, 2′; 4,5]thieno[3,2-d]pyrimidine]

- pIC50 [1]: > 10.00
- IC50 ([1]; read-out: EGFR IC50 nM): < 0.1 nM
- pIC50 [2]: 7.77
Molecule: Brc1cccc(Nc2ncnc3cc4ccccc4cc23)c1 [Example 1, 4-(3-bromoanilino)benzo[q]quinazoline hydrochloride]

- IC50 [1, 5]: 12.3 nM
Molecule: O=[N+]([O-])c1ccc2sc3c(Nc4cccc(Br)c4)ncnc3c2c1 [Example 16, 4-(3-Bromoanilino)-8-nitrobenzo[b]thieno[3,2-d]pyrimidine]

- IC50 ([1]; EGF Receptor Tyrosine Kinase Inhibition, Table 1, values in pM, read-out: IC50 in EGFR): 0.075 nM
Molecule: Brc1cccc(Nc2ncnc3cc4ncoc4cc23)c1 [Example 5]

- pIC50 [1]: 6.66
Molecule: COc1ccc2[nH]c3ncnc(Nc4cccc(Br)c4)c3c2c1 [Example 31, 4-(3-Bromoanilino)6-methoxyindolo[2,3-d]pyrimidine]

- pIC50 [1]: 9.12
Molecule: Brc1cccc(Nc2ncnc3cc4[nH]ccc4cc23)c1 [Example 3, 4-(3-Bromoanilino)pyrrolo[3,2-g]quinazoline]

- EGFR inhibition at fixed concentration ([1]; @ 10 nM): 36% @ 10
Molecule: COc1cccc2sc3c(Nc4cccc(Br)c4)ncnc3c12.Cl [Example 18, 4-(3-Bromoanilino)-9-methoxybenzo[b]thieno[3,2-d]pyrimidine hydrochloride.]

- pIC50 ([1]; read-out: EGFR IC50): 8.77
- pIC50 ([1]; read-out: IC50 in EGFR): 8.77
- pIC50 [2]: 7.51
- pIC50 [3]: ~6.15
Molecule: Brc1cccc(Nc2ncnc3cc4nccnc4cc23)c1 [Example 10, 4-(3-Bromoanilino)pyrazino[2,3-g]quinazoline]
